In patent publication US20120245137A1 (Zalicus Pharmaceuticals Ltd., priority 2009, published 2012):
Read-outs that look alike come from different tables or passages of the source.

Experiments:
Type in all cases: cell-based
Human Cav 2.2 channels = Human Cav 2.2 channels (Homo sapiens, UniProt Q00975); assay: Fluorescent assay for CaV2.2 channels using potassium depolarization (VIPR/FLIPR); conditions: FLIPR data; for CAv2.2 IC50 Ratio closed/inact.: ratio closed/inactivated IC50
How it was run: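 HEK293 cells stably expressing human Cav2.2 with α2δ and β subunits plus Kir2.3 were loaded with fluo-4 and incubated 30 min at 25 °C with compound in 4, 12, 25 or 30 mM potassium buffer. Channels were opened with 70 mM potassium (final) and calcium influx was read by fluorescence (Ex 480/Em 535 nm).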

T-type calcium channel [1] = target: T-type calcium channel (Homo sapiens, UniProt O43497); assay: T-type channel blocking, FLIPR data (Table 6); conditions: CAv3.1
From the text: (§1) Another method, high-throughput spectrophotometric assay, utilizes loading of the cell lines with a fluorescent dye sensitive to intracellular calcium concentration and subsequent examination of the effects of compounds on the ability of depolarization by potassium chloride or other means to alter intracellular calcium levels.

T-type calcium channel [2] = target: T-type calcium channel (Homo sapiens, UniProt O95180); assay: T-type channel blocking, FLIPR data (Table 6); conditions: for CAv3.2 IC50 Ratio closed/inact.: CAv3.2, ratio closed/inactivated IC50
From the text: as §1

CAv1.2 = CAv1.2 (Homo sapiens, UniProt Q13936); assay: FLIPR data, CAv1.2 channel blocking (Table 6); conditions: for CAv1.2 IC50 Ratio closed/inact.: ratio closed/inactivated IC50
[3] = closed state, read-out: CAv2.2 IC50 Closed
[4] = inactivated state, read-out: CAv2.2 IC50 Inact.
[5] = CAv3.2, closed state, read-out: CAv3.2 IC50 Closed
[6] = CAv3.2, inactivated state, read-out: CAv3.2 IC50 Inact.
[7] = closed state, read-out: CAv1.2 IC50 Closed
[8] = inactivated state, read-out: CAv1.2 IC50 Inact.

T-type calcium channel (Homo sapiens, UniProt O95180), sequence (O95180 whole entry): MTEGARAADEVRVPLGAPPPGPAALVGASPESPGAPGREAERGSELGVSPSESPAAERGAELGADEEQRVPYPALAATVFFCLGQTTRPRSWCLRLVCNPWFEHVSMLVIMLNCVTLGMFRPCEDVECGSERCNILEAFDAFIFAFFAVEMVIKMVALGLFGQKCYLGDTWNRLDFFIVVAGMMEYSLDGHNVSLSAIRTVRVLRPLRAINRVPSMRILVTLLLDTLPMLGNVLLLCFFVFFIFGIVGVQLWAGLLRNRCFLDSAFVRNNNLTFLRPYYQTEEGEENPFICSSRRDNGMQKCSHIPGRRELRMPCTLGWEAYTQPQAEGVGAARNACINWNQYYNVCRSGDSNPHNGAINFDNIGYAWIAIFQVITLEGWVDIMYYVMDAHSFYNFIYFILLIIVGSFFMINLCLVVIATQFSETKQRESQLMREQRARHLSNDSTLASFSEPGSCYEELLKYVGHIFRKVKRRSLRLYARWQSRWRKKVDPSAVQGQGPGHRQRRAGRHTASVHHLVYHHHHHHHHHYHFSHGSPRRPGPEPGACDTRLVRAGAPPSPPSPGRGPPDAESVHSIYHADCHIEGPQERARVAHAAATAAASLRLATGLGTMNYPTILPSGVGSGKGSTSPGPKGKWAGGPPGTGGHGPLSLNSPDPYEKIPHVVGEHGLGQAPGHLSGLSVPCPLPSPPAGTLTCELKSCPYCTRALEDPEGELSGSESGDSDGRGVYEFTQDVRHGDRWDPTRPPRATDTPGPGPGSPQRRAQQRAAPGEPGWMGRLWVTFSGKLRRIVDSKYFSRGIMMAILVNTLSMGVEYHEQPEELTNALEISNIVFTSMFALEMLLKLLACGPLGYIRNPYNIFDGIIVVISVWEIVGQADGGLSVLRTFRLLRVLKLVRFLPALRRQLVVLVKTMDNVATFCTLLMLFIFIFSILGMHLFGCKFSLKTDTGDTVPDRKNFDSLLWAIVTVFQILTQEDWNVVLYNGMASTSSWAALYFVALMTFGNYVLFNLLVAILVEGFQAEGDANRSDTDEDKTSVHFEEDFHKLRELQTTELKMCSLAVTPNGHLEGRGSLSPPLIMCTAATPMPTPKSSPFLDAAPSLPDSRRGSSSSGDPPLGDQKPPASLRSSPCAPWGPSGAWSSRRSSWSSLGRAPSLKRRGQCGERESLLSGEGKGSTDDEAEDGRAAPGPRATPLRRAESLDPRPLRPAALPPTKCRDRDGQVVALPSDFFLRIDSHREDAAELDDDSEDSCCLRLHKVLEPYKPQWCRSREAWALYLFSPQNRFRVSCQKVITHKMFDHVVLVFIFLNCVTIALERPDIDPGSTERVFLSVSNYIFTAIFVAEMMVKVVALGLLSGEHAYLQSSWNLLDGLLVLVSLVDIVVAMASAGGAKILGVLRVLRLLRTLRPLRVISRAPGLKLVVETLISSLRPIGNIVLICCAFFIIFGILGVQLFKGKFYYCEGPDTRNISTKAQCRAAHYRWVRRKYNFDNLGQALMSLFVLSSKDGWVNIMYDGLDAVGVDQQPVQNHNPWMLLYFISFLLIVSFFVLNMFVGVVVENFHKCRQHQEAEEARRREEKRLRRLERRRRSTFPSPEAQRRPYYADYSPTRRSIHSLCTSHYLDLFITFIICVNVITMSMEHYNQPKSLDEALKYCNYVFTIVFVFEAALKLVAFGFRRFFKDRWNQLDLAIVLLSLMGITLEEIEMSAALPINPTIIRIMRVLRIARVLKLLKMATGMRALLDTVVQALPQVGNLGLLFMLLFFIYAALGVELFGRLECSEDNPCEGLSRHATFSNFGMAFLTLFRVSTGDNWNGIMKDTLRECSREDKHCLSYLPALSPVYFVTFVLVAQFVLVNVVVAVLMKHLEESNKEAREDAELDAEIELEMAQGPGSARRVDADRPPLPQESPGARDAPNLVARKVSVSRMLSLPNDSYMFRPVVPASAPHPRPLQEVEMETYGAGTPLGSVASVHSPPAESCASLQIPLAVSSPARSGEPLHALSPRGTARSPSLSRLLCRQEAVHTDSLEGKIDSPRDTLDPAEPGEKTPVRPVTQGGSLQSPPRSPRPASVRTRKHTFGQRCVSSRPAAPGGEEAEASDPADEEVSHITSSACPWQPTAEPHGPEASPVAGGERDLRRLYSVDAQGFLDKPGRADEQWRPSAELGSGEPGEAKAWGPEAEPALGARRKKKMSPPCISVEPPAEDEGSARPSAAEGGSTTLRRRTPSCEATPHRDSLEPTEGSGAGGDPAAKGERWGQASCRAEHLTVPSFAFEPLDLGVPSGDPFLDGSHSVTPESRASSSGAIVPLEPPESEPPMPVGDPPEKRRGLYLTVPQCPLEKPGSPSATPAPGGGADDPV
T-type calcium channel (Homo sapiens, UniProt O43497), sequence (O43497 whole entry): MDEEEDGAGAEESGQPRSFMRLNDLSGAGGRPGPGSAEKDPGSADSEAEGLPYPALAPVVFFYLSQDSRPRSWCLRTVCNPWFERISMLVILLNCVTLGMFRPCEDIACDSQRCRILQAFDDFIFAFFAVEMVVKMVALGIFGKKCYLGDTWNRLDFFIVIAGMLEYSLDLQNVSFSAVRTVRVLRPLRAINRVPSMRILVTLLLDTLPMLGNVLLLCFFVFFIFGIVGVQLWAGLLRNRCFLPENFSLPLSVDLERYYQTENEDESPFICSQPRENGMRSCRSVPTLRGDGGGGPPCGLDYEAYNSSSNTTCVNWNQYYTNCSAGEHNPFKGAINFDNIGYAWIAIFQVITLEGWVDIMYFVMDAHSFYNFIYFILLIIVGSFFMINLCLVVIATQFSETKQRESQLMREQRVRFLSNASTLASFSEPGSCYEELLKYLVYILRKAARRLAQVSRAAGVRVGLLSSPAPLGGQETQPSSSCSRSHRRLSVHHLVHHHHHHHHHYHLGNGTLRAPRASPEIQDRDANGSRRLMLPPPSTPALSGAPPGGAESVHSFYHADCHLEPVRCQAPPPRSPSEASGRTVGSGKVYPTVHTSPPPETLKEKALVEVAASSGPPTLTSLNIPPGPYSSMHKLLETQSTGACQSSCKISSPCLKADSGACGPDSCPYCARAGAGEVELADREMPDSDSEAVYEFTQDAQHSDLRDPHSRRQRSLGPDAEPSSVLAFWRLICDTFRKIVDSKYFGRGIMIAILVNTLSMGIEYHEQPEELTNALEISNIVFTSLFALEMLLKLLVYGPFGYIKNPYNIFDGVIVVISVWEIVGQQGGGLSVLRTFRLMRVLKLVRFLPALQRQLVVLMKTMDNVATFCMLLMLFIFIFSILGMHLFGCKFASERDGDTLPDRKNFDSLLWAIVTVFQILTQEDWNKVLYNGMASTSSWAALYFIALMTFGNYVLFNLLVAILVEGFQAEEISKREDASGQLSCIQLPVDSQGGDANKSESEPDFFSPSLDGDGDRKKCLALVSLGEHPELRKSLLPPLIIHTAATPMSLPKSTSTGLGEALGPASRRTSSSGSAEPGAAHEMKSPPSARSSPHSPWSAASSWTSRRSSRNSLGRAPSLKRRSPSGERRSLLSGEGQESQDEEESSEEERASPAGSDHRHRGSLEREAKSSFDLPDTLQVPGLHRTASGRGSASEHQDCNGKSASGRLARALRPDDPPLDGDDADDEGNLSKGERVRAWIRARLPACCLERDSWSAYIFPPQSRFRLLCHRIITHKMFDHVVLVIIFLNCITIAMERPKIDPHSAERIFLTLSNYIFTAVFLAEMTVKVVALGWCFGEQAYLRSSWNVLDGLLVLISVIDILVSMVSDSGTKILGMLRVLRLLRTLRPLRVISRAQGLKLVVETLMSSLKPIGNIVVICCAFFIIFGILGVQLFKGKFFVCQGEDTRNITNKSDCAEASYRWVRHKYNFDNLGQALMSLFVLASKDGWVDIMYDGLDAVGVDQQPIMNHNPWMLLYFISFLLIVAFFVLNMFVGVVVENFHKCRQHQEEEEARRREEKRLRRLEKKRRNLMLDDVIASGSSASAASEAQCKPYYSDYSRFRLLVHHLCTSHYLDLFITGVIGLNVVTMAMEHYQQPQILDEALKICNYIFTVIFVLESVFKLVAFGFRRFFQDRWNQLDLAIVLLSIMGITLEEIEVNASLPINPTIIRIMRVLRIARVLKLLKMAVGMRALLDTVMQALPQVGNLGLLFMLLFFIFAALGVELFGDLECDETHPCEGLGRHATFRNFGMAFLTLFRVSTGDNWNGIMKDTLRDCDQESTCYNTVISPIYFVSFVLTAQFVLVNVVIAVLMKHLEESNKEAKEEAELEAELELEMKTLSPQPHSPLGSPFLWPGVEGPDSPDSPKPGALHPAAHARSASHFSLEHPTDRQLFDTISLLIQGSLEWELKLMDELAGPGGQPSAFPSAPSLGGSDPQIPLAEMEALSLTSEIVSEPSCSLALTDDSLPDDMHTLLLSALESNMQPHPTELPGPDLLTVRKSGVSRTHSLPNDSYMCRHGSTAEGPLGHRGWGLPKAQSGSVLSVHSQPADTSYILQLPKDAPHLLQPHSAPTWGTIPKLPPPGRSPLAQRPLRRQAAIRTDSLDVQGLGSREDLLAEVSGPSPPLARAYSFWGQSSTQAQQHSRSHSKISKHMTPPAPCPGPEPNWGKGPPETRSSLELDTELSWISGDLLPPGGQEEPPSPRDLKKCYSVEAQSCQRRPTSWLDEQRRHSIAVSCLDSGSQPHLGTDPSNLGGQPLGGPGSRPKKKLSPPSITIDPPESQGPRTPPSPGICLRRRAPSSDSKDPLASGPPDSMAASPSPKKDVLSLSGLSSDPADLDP

IC50 (Human Cav 2.2 channels; [3]) | IC50 (Human Cav 2.2 channels; [4]) | CAv2.2 IC50 Ratio closed/inact. (Human Cav 2.2 channels) | IC50 (T-type calcium channel [1]) | IC50 (T-type calcium channel [2]; [5]) | IC50 (T-type calcium channel [2]; [6]) | CAv3.2 IC50 Ratio closed/inact. (T-type calcium channel [2]) | Compound | IC50 (CAv1.2; [7]) | IC50 (CAv1.2; [8]) | CAv1.2 IC50 Ratio closed/inact. (CAv1.2)
2.86 µM | 0.22 µM | 13 | 2.79 µM | 1.78 µM | 1.82 µM | 1 | CC(C)([C@H]1C[C@H](NC(=O)c2ccc(C(F)(F)F)cc2)C1)S(=O)(=O)c1cccc(C(F)(F)F)c1 [Compound 677] | 6.35 µM | 2.23 µM | 2.8
1.34 µM | 0.15 µM | 8.9 | 8.03 µM | 2.69 µM | 0.81 µM | 3.3 | CC(C)(C1CC(CNC(=O)c2ccc(Cl)c(F)c2)C1)S(=O)(=O)c1cccc(C(F)(F)F)c1 (centres unmarked) [Compound 617] | 4.05 µM | 0.38 µM | 10.7
3.39 µM | 0.13 µM | 26.1 | ≥ 10 µM | 8.7 µM | 2.27 µM | 3.8 | CC(C)(C[C@H]1C[C@@H](NC(=O)c2cnc(C(F)(F)F)nc2)C1)S(=O)(=O)c1cccc(C(F)(F)F)c1 [Compound 734] | ≥ 10 µM | 5.67 µM | 1.8
6.14 µM | 1.03 µM | 6 | 5.59 µM | ≥ 10 µM | 4.4 µM | 2.3 | CC(C)([C@H]1C[C@@H](NS(=O)(=O)c2ccc(F)c(Cl)c2)C1)S(=O)(=O)c1cc(F)cc(C(F)(F)F)c1 [Compound 599] | 8.85 µM | 3.05 µM | 2.9
8.05 µM | 1.06 µM | 7.6 | 2.93 µM | 3.08 µM | 2.79 µM | 1.1 | CC(C)([C@H]1C[C@H](NS(=O)(=O)c2ccc(F)c(Cl)c2)C1)S(=O)(=O)c1cccc(C(F)(F)F)c1 [Compound 664] | ≥ 10 µM | 3.67 µM | 2.7
3.01 µM | 0.29 µM | 10.4 | 9.43 µM | 2.74 µM | 2.39 µM | 1.1 | CC(C)([C@H]1C[C@H](NC(=O)c2ccc(OCC(F)(F)F)nc2)C1)S(=O)(=O)c1cccc(C(F)(F)F)c1 [Compound 674] | 7.73 µM | 1.74 µM | 4.4
0.5 µM | 0.05 µM | 10 | 6.16 µM | 4.61 µM | 1.41 µM | 3.3 | CC(C)(C[C@H]1C[C@@H](NC(=O)c2ccc(Cl)cn2)C1)S(=O)(=O)c1cccc(C(F)(F)F)c1 [Compound 733] | 7.27 µM | 3.99 µM | 1.8
8.03 µM | 0.65 µM | 12.4 | 4.65 µM | 4.67 µM | – | – | CC(C)([C@H]1C[C@@H](CNC(=O)c2ncc(C(F)(F)F)cn2)C1)S(=O)(=O)c1cccc(C(F)(F)F)c1 [Compound 684] | ≥ 10 µM | 5.35 µM | 1.9
5.25 µM | 0.82 µM | 6.4 | 3.57 µM | ≥ 10 µM | 5.08 µM | 2 | CC(C)([C@H]1C[C@@H](NS(=O)(=O)c2ccc(Cl)c(F)c2)C1)S(=O)(=O)c1cc(F)cc(C(F)(F)F)c1 [Compound 600] | 6.93 µM | 2.22 µM | 3.1
4.71 µM | 0.15 µM | 31.4 | ≥ 10 µM | 5.68 µM | 3.67 µM | 1.5 | CC(C)(C[C@H]1C[C@H](NC(=O)c2ccc(Cl)cc2S(C)(=O)=O)C1)S(=O)(=O)c1cccc(C(F)(F)F)c1 [Compound 718] | ≥ 10 µM | ≥ 10 µM | –
2.11 µM | 0.3 µM | 7 | 3.08 µM | 2.47 µM | 1 µM | 2.5 | O=C(NC[C@H]1C[C@H](S(=O)(=O)c2cccc(OC(F)(F)F)c2)C1)c1ccc(C(F)(F)F)cc1 [Compound 694] | 7.51 µM | 2.22 µM | 3.4
9.19 µM | 0.87 µM | 10.6 | 2.01 µM | 2.94 µM | 1.53 µM | 1.9 | CC(C)([C@H]1C[C@H](NS(=O)(=O)c2ccc(C(F)(F)F)cc2)C1)S(=O)(=O)c1cccc(C(F)(F)F)c1 [Compound 663] | ≥ 10 µM | 2.98 µM | 3.4
3.14 µM | 0.49 µM | 6.4 | 7.86 µM | 6.22 µM | 5.1 µM | 1.2 | CC(C)(C[C@H]1C[C@H](NC(=O)c2ccc(C(F)(F)F)nc2)C1)S(=O)(=O)c1cccc(C(F)(F)F)c1 [Compound 723] | ≥ 10 µM | 4.89 µM | 2
0.92 µM | 0.06 µM | 15.3 | 3.81 µM | 0.57 µM | 0.76 µM | 0.8 | CC(C)(C[C@H]1C[C@@H](NC(=O)c2ccc(C(F)(F)F)cc2)C1)S(=O)(=O)c1cccc(C(F)(F)F)c1 [Compound 732] | 2.89 µM | 0.62 µM | 4.7
10 µM | 3.26 µM | 3.1 | 9.04 µM | 6.41 µM | 3.59 µM | 1.8 | O=S(=O)(c1cc(F)cc(C(F)(F)F)c1)[C@H]1C[C@@H](CNc2ccnc(C(F)(F)F)n2)C1 [Compound 651] | 9.21 µM | 3.86 µM | 2.4
6.9 µM | 0.15 µM | 46 | 8.24 µM | 8.13 µM | 6.78 µM | 1.2 | CC(C)S(=O)(=O)c1cc(C(F)(F)F)cnc1C(=O)N[C@H]1C[C@@H](CC(C)(C)S(=O)(=O)c2cccc(C(F)(F)F)c2)C1 [Compound 729] | ≥ 10 µM | 9.3 µM | 1.1
10 µM | 1.08 µM | 9.3 | 2.5 µM | 2.7 µM | 2.16 µM | 1.3 | CC(C)([C@H]1C[C@H](NS(=O)(=O)c2ccc(F)c(C(F)(F)F)c2)C1)S(=O)(=O)c1cccc(C(F)(F)F)c1 [Compound 667] | 7.76 µM | 2.56 µM | 3
